Data: patent publication US20140066385A1, “METHOD FOR TREATING CANCER BY COMBINED USE OF DRUGS” (Astellas Pharma Inc., priority 2011, published 2014)

What was measured:
[1] = tested on: human breast cancer (MDA-MB-468); test: Example 11: FK330 with docetaxel in MDA-MB-468 tumor-bearing mice; type: in vivo, nude mice; conditions: FK330 100 mg/kg bid p.o. + docetaxel 15 mg/kg/day i.v. (Day 0 and Day 37)
Method: The dose of FK330 is expressed in terms of the weight of a simple substance (non-hydrate). Docetaxel (a docetaxel hydrate injectable preparation (Taxotere (trademark), for intravenous infusion)) was purchased from Sanofi-Aventis SA, and was used as docetaxel.
FK330 was suspended (20 mg/mL) in a 0.5% aqueous methyl cellulose solution (0.5% MC), and was orally administered. Docetaxel was prepared to a concentration of 20 mg/mL with 95% ethanol, and then diluted to 1.5 mg/mL with physiological saline for injection (Otsuka Pharmaceutical Group) immediately before administration and intravenously administered through the tail vein.
Human breast cancer-derived MDA-MB-468 (HTB-132) was obtained from American Type Culture Collection (VA, USA). […]
(§1) The body weight and the tumor diameter, determined by using a digital caliper, were measured twice a week. The tumor volume was calculated from the calculation formula for ellipsoid volume of (major axis×[minor axis]^2×0.5).
(§2) The results are expressed as the mean value (Mean)±standard error (SEM). […] Using the actual measured values of the tumor volume at each measurement time point, an unpaired statistical test (Student's t-test) of the difference between two groups was carried out between a single administration group and a combined use group. […]

[2] = tested on: human breast cancer (MDA-MB-231); test: Example 6: FK330 with paclitaxel in MDA-MB-231 tumor-bearing mice; type: in vivo, nude mice; conditions: FK330 100 mg/kg bid p.o. + paclitaxel 10 mg/kg/day i.v. (4 days each cycle), P<0.01
Method: The dose of FK330 is expressed in terms of the weight of a simple substance (non-hydrate). Paclitaxel was purchased from LC Laboratories, Inc. (Woburn, Mass., USA), and was used as paclitaxel.
FK330 was suspended (20 mg/mL) in a 0.5% aqueous methyl cellulose solution (0.5% MC), and was orally administered. Paclitaxel was prepared into a stock solution at 10 mg/mL with an ethanol/cremophor solution (mixed at 1:1), and then the stock solution was diluted to 1 mg/mL with physiological saline for injection (Otsuka Pharmaceutical Group) immediately before administration and was intravenously administered through the tail vein.
Human breast cancer-derived MDA-MB-231 (HTB-26) was obtained from American Type Culture Collection (VA, USA). […]
as §1
as §2, with “points,” for “point,”

O=C(/C=C/c1ccc(Cl)cc1)N[C@@H](Cc1ccccn1)C(=O)NCC(=O)N1CCC(Oc2cc(C(F)(F)F)ncn2)CC1 [FK330, N^2-[(2E)-3-(4-chlorophenyl)-2-propenoyl]-N-[2-oxo-2-(4-{[6-(trifluoromethyl)pyrimidin-4-yl]oxy}piperidin-1-yl)ethyl]-3-pyridin-2-yl-L-alaninamide]
tumor volume reduction ratio compared with the docetaxel-only group ([1]; Day 37, P<0.05): 46.6% | tumor volume reduction ratio compared with the docetaxel-only group ([1]; Day 65, P<0.01): 76.6% | tumor volume reduction ratio compared with the paclitaxel-only group ([2]; Day 28): 59.6% | tumor volume reduction ratio compared with the paclitaxel-only group ([2]; Day 66): 82.8%
